Reference: the NIST ThermoML archive (doi:10.1021/je0342320)

Assay: xn = mol fraction of the nth substance listed
Settings: Liquid, Vibrating tube method

CCCCCCCCCC [decane] + COC(=O)OC
mass density [kg/m3]
Settings	288.15 K	293.15 K	298.15 K	303.15 K	308.15 K	313.15 K	318.15 K	323.15 K	328.15 K
100 kPa, x2 = 0.0676	741.97	738.16	734.31	730.48	726.53	722.58	718.68	714.71	710.69
100 kPa, x2 = 0.2303	767.95	763.84	759.7	755.57	751.35	747.1	742.9	738.81	734.47
100 kPa, x2 = 0.2934	780.23	775.99	771.64	767.36	763	758.66	754.31	749.94	745.53
100 kPa, x2 = 0.4055	804.52	799.94	795.37	790.78	786.2	781.63	777.08	772.41	767.74
100 kPa, x2 = 0.502	829.72	824.83	819.95	815.09	810.29	805.45	800.57	795.68	790.73
100 kPa, x2 = 0.5476	843.28	838.17	833.19	828.19	823.17	818.21	813.18	808.16	803.07
100 kPa, x2 = 0.5883	–	851.08	845.93	840.82	835.71	–	–	–	–
100 kPa, x2 = 0.665	883.8	878.01	872.69	867.33	861.96	856.63	851.25	845.86	840.35
100 kPa, x2 = 0.7101	901.71	896.39	890.82	885.21	879.57	874	868.41	862.69	857.01
100 kPa, x2 = 0.7993	–	936.74	930.88	925.09	919.3	913.46	907.56	901.72	895.68
100 kPa, x2 = 0.9062	1004.68	998.35	992.18	985.93	979.75	973.48	967.13	960.79	954.3
10000 kPa, x2 = 0.0676	749.1	745.45	741.8	738.15	734.45	730.76	727.04	723.36	719.66
10000 kPa, x2 = 0.2303	775.45	771.54	767.62	763.68	759.73	755.75	751.73	747.9	743.93
10000 kPa, x2 = 0.2934	787.82	783.79	779.68	775.58	771.51	767.5	763.4	759.3	755.2
10000 kPa, x2 = 0.4055	812.34	807.99	803.65	799.32	794.99	790.74	786.45	782.1	777.74
10000 kPa, x2 = 0.502	837.73	833.07	828.44	823.86	819.3	814.81	810.24	805.66	801.04
10000 kPa, x2 = 0.5476	851.4	846.56	841.77	837.03	832.33	827.67	822.96	818.26	813.56
10000 kPa, x2 = 0.5883	–	859.46	854.59	849.74	844.95	–	–	–	–
10000 kPa, x2 = 0.665	–	886.63	881.52	876.43	871.37	866.37	861.33	856.25	851.18
10000 kPa, x2 = 0.7101	–	905.11	899.75	894.46	889.19	883.94	878.62	873.27	867.93
10000 kPa, x2 = 0.7993	–	945.44	939.91	934.41	928.93	923.44	917.9	912.4	906.86
10000 kPa, x2 = 0.9062	1013.19	1007.19	1001.24	995.33	989.47	983.52	977.56	971.62	965.6
20000 kPa, x2 = 0.0676	755.73	752.25	748.75	745.3	741.78	738.28	734.75	731.25	727.74
20000 kPa, x2 = 0.2303	782.4	778.69	774.95	771.21	767.45	763.69	759.87	756.2	752.49
20000 kPa, x2 = 0.2934	794.87	791.01	787.1	783.23	779.37	775.54	771.65	767.8	763.94
20000 kPa, x2 = 0.4055	819.59	815.46	811.3	807.2	803.1	799.07	794.97	790.9	786.78
20000 kPa, x2 = 0.502	844.78	840.72	836.29	831.94	827.62	823.33	819.01	814.72	810.36
20000 kPa, x2 = 0.5476	–	854.35	849.77	845.25	840.77	836.31	831.86	827.41	822.99
20000 kPa, x2 = 0.5883	–	867.28	862.62	858.02	853.46	–	–	–	–
20000 kPa, x2 = 0.665	–	894.64	889.73	884.86	880.05	875.3	870.52	865.73	860.94
20000 kPa, x2 = 0.7101	–	913.24	908.1	903.07	898.05	893.08	888.03	882.95	877.85
20000 kPa, x2 = 0.7993	–	953.46	948.28	943.03	937.83	932.63	927.38	922.17	916.93
20000 kPa, x2 = 0.9062	1021.19	1015.43	1009.74	1004.09	998.48	992.81	987.16	981.53	975.83
30000 kPa, x2 = 0.0676	761.88	758.56	755.23	751.9	748.49	745.23	741.84	738.46	735.12
30000 kPa, x2 = 0.2303	788.87	785.31	781.73	778.15	774.52	770.99	767.35	763.83	760.25
30000 kPa, x2 = 0.2934	801.43	797.71	–	790.27	786.53	782.96	779.22	775.53	771.85
30000 kPa, x2 = 0.4055	826.32	822.34	818.38	814.45	810.51	806.72	802.8	798.87	794.98
30000 kPa, x2 = 0.502	–	847.8	843.57	839.39	835.23	831.19	827.05	822.91	818.78
30000 kPa, x2 = 0.5476	–	861.57	857.18	852.82	848.52	844.29	840	835.74	831.5
30000 kPa, x2 = 0.5883	–	874.53	870.04	865.63	861.27	–	–	–	–
30000 kPa, x2 = 0.665	–	902.11	897.31	892.63	888.01	883.49	878.91	874.34	869.79
30000 kPa, x2 = 0.7101	–	920.82	915.87	911.02	906.21	901.47	896.64	891.78	886.87
30000 kPa, x2 = 0.7993	–	–	956.06	951.01	946.02	941.03	936.02	931.08	926.1
30000 kPa, x2 = 0.9062	1028.63	1023.08	1017.62	1012.2	1006.83	1001.36	995.97	990.6	985.17
40000 kPa, x2 = 0.0676	767.71	764.48	761.28	758.05	–	751.65	748.36	745.15	741.93
40000 kPa, x2 = 0.2303	794.93	791.49	788.05	784.61	–	777.72	774.2	770.85	767.41
40000 kPa, x2 = 0.2934	807.54	803.97	800.4	796.82	–	789.79	786.19	782.66	779.13
40000 kPa, x2 = 0.4055	832.65	828.8	825	821.19	–	813.78	809.98	806.24	802.5
40000 kPa, x2 = 0.502	–	854.44	850.35	846.29	–	838.42	834.42	830.5	826.54
40000 kPa, x2 = 0.5476	–	868.38	864.11	859.91	–	851.66	847.53	843.43	839.36
40000 kPa, x2 = 0.5883	–	–	876.98	872.72	–	–	–	–	–
40000 kPa, x2 = 0.665	–	–	904.39	899.87	–	891.08	886.65	882.27	877.9
40000 kPa, x2 = 0.7101	–	–	923.09	918.42	–	909.27	904.62	899.97	895.22
40000 kPa, x2 = 0.7993	–	–	–	958.41	–	948.81	944	939.25	934.48
40000 kPa, x2 = 0.9062	1035.61	1030.28	1025.01	1019.78	–	1009.35	1004.15	–	993.79
